The text below walks through data of PubChem BioAssay (NCI).

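Grown in 96-well plates, cells were treated for 48 hours with each compound at five concentrations. Insufficient inhibition: endpoint recorded as highest concentration tested. TGI marks complete inhibition of growth.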 Where only a bound is given, the exact number is not on record here.

Among the test systems are HCT-116 colon; SK-MEL-2 melanoma; RXF 393 renal; HOP-62 NSCLC; MOLT-4 leukemia; MDA-MB-435; OVCAR-3 ovarian; SW-620 colon; T-47D breast; MALME-3M melanoma.
Experiment in all cases: NCI tumour cell line growth inhibition, 48 h

Take `COc1cc(/C=N/NC2=NCCN2)ccc1O`: the TGI with HCT-116 colon, in the experiment on SK-MEL-2 melanoma, in the experiment with RXF 393 renal, in the experiment on HOP-62 NSCLC, with MOLT-4 leukemia and in the experiment on MDA-MB-435 was over 100 µM throughout. Further, the TGI with OVCAR-3 ovarian, with SW-620 colon, in the experiment with T-47D breast and in the experiment on MALME-3M melanoma was over 100 µM throughout.
As for `C=C1C(=O)OC2C3OC(C)(CCC(O)C3COC(C)=O)CC(OC(=O)/C(=C/C)COC(C)=O)C12` (stereo not given), the TGI in the experiment with HCT-116 colon was found to be 0.216 µM; in the experiment with SK-MEL-2 melanoma, 6.96 µM; in the experiment with RXF 393 renal, 0.515 µM; in the experiment on HOP-62 NSCLC it was 10.1 µM; in the experiment on MOLT-4 leukemia, 0.389 µM; in the experiment on MDA-MB-435, 12.6 µM. Besides, the TGI with OVCAR-3 ovarian worked out at 0.983 µM; in the experiment on SW-620 colon, 0.261 µM; in the experiment on T-47D breast it was 0.424 µM; with MALME-3M melanoma it was 0.0763 µM.
For `CCNC(=S)N/N=C(\C)c1cccc(C)n1`, the TGI was 53.1 µM with HCT-116 colon; over 100 µM in the experiment with SK-MEL-2 melanoma; over 100 µM in the experiment with RXF 393 renal; over 100 µM in the experiment with HOP-62 NSCLC; over 100 µM in the experiment on MOLT-4 leukemia; over 100 µM in the experiment with MDA-MB-435. In addition, the TGI in the experiment with OVCAR-3 ovarian, with SW-620 colon, in the experiment with T-47D breast and with MALME-3M melanoma was over 100 µM each time.
Turning to `O=C(Nc1ccc2ccccc2c1)c1cc2cc(CCl)ccc2oc1=O`, the TGI in the experiment with HCT-116 colon was over 100 µM; in the experiment with SK-MEL-2 melanoma, 63.3 µM; in the experiment on RXF 393 renal it was 54.1 µM; in the experiment on HOP-62 NSCLC it was over 100 µM; in the experiment on MOLT-4 leukemia, over 100 µM; in the experiment on MDA-MB-435, over 100 µM. Further, the TGI in the experiment on OVCAR-3 ovarian, with SW-620 colon, in the experiment on T-47D breast and in the experiment with MALME-3M melanoma was over 100 µM in each case.
In the case of `c1cc2c(cc1C1=NCCN1)c1cc(C3=NCCN3)ccc1n2CC1CCCCC1`, the TGI is 51.1 µM in the experiment on HCT-116 colon; 34.6 µM with SK-MEL-2 melanoma; over 100 µM with RXF 393 renal; 94.8 µM with HOP-62 NSCLC; 34.8 µM in the experiment on MOLT-4 leukemia; 50.3 µM in the experiment on MDA-MB-435. The TGI is over 100 µM in the experiment on OVCAR-3 ovarian, over 100 µM in the experiment with SW-620 colon, 84.7 µM in the experiment on T-47D breast and 23.8 µM in the experiment on MALME-3M melanoma.
On to `C=CC[C@H](N=C(SC)SC)C(=O)N1C(=O)N(C)[C@@H](C)[C@H]1c1ccccc1`, for which the TGI was over 100 µM in the experiment with HCT-116 colon; 91.2 µM in the experiment with SK-MEL-2 melanoma; over 100 µM in the experiment on RXF 393 renal; over 100 µM in the experiment with HOP-62 NSCLC; over 100 µM in the experiment on MOLT-4 leukemia; over 100 µM in the experiment with MDA-MB-435. For the same compound, the TGI with OVCAR-3 ovarian, with SW-620 colon, in the experiment with T-47D breast and with MALME-3M melanoma was over 100 µM in each case.
